Laboratory results published in PMC6079014, “Calcium is an essential cofactor for metal efflux by the ferroportin transporter family” (Nature Communications, 2018).

Biological target: T1, human Fpn Q99A (Homo sapiens, UniProt Q9NP59, Q99A)
T1 construct: expressed in transfected cells; host or cells: Xenopus laevis oocytes injected with mutant Fpn RNA (pOX(+) vector)
T1 sequence (Q9NP59 1-571 Q99A): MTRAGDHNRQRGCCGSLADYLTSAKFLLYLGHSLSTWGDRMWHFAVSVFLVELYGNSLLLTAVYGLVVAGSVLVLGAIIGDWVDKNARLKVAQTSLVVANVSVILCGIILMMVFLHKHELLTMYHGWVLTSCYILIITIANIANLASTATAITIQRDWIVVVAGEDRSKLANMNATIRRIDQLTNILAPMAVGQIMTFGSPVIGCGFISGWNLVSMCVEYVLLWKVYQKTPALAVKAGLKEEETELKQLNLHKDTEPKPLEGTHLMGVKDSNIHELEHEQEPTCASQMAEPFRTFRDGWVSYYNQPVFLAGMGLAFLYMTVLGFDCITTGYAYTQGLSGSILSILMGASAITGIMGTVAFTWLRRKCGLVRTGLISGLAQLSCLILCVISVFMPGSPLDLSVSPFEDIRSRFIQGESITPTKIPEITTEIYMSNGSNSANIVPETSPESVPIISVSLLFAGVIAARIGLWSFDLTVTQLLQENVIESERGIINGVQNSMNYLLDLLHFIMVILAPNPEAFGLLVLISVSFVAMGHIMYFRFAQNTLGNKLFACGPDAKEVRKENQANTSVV
Assay: 55Fe efflux assay in Xenopus oocytes expressing Q99A mutant human Fpn
Type: cell-based
Conditions: fit by Eq. (2), ± SEM, read-out: K0.5Ca, half-maximal extracellular Ca2+ concentration for stimulation of 55Fe efflux
Procedure: We performed laparotomy and ovariectomy on adult female Xenopus laevis frogs (Nasco, Fort Atkinson, WI) under 2-aminoethylbenzoate methanesulfonate anesthesia (0.2%, by immersion, to effect) following a protocol approved by the University of Cincinnati Institutional Animal Care and Use Committee. Ovarian tissue was isolated and treated for 3 h with […] collagenase A (Roche Diagnostics Corp., Indianapolis, IN) in calcium-free-modified Barths’ medium (MBM) of composition 88 mM NaCl, 1 mM KCl, 2.4 mM NaHCO3, 1.57 mM MgSO4, 0.66 mM NaNO3, 10 mM 4-(2-hydroxyethyl)-1-piperazineethanesulfonic acid (HEPES), buffered to pH 7.5 by using 2-amino-2-hydroxymethyl-propane-1,3-diol (Tris base). […]
We measured metal efflux from oocytes expressing Fpn by using a radiotracer assay. […]
To initiate the efflux assay, we placed oocytes in standard efflux medium of composition 100 mM NaCl, 1 mM KCl, 2 mM CaCl2, 1 mM MgCl2, 0.5 mM bathophenanthroline disulfonic acid (BPS), 1 mM nitrilotriacetic acid (NTA) trisodium salt, 50 μg/ml apotransferrin (ApoTf) (R&D Systems Inc., Minneapolis, MN), buffered with 0–5 mM MES, and 0–5 mM N′,N′-diethylpiperazine to obtain pH 7.5, with the following exceptions. […] The corresponding oocytes were rinsed twice in ice-cold medium (without BPS), solubilized with 5% (w/v) sodium dodecyl sulfate, and counted (Nt). […]

Q: With `[Ca+2]` [Ca^2+, calcium] as the compound, how does the EC50 read?
A: 2.4 mM
